Results on twelve molecules are retold here after ChEMBL document CHEMBL4725440, “Peptoid NPhe in AGRP-Based c[Pro-Arg-Phe-Phe-Xxx-Ala-Phe-DPro] Scaffolds Maintain Mouse MC4R Antagonist Potency” (ACS Med Chem Lett, 2020).

Molecules are shown by their SMILES. Where a SMILES comes first, the peptide text is derived from it.

Common to all, as to assay type: functional
The target of test [1] is Melanocortin receptor 3 (Mus musculus) (UniProt P33033). Put plainly: Agonist activity at mouse MC3R at 100 uM by alphascreen cAMP assay relative to control. Background: Alpha assays give light when donor and acceptor beads are brought close together.
Melanocortin receptor 3 (Mus musculus), sequence (P33033 whole entry): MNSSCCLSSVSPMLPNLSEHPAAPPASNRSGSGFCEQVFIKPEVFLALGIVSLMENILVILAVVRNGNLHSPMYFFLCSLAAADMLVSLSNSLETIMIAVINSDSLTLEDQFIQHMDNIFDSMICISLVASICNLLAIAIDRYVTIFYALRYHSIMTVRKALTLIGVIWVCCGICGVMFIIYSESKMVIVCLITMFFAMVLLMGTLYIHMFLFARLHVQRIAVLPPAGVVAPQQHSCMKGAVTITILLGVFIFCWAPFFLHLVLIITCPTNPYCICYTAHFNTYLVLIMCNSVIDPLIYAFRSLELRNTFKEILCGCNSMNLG
For test [2], the target named is Melanocortin receptor 5 (Mus musculus) (UniProt P41149). Put plainly: Agonist activity at mouse MC5R at 100 uM by alphascreen cAMP assay relative to control.
Melanocortin receptor 5 (Mus musculus), sequence (P41149 whole entry): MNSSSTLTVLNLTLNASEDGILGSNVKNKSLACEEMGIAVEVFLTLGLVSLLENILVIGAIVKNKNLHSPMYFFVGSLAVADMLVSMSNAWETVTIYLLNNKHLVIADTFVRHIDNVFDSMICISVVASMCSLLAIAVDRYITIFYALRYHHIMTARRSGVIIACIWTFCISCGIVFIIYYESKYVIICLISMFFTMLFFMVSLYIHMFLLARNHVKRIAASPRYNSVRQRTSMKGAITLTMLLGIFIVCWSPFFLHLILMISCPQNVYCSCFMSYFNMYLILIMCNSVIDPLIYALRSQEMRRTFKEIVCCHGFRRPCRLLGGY
The target in test [3] is Melanocyte-stimulating hormone receptor (Mus musculus, UniProt Q01727). As to the kind of experiment: Agonist activity at mouse MC1R by alphascreen cAMP assay.
Melanocyte-stimulating hormone receptor, sequence (Q01727 whole entry): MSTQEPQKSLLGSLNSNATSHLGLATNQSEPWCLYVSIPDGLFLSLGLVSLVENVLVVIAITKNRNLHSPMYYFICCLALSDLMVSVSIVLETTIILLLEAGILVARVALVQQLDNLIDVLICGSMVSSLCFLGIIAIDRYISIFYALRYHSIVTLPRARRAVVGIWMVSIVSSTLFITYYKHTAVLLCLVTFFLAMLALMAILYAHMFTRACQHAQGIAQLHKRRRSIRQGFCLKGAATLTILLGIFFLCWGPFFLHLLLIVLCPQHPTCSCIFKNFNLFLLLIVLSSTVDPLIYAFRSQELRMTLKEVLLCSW
Test [4] has as its target T1, Melanocortin receptor 3 (Mus musculus, UniProt P33033). As to the kind of experiment: Agonist activity at mouse MC3R by alphascreen cAMP assay.
Test [5] has as its target T1, Melanocortin receptor 3. Put plainly: Antagonist activity at mouse MC3R assessed as antagonist potency by alphascreen cAMP assay. To be noted: read-out: pA2 (converted).
The target in test [6] is T2, Melanocortin receptor 4 (Mus musculus, UniProt P56450). Put plainly: Agonist activity at mouse MC4R by alphascreen cAMP assay.
T2 sequence (P56450 whole entry): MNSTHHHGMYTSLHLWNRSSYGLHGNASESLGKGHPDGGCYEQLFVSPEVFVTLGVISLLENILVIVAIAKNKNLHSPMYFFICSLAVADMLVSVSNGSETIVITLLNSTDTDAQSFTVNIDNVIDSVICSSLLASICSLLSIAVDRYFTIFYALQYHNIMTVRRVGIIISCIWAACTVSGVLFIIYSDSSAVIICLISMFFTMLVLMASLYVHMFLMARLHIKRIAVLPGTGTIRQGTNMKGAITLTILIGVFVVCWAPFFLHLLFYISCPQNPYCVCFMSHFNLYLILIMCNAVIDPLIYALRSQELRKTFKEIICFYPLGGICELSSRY
The target in test [7] is T2, Melanocortin receptor 4. Put plainly: Antagonist activity at mouse MC4R assessed as antagonist potency by alphascreen cAMP assay. To be noted: read-out: pA2 (converted).
The target of test [8] is Melanocyte-stimulating hormone receptor (Mus musculus) (UniProt Q01727). As to the kind of experiment: Agonist activity at mouse MC1R at 100 uM by alphascreen cAMP assay relative to NDP-MSH. To be noted: filed as partial agonist.
Melanocyte-stimulating hormone receptor (Mus musculus), sequence (Q01727 whole entry, looked up): as the sequence (Q01727 whole entry) above
The target of the next test is Melanocortin receptor 5 (Mus musculus, UniProt P41149). Put plainly: Agonist activity at mouse MC5R by alphascreen cAMP assay.
Melanocortin receptor 5, sequence (P41149 whole entry): as the sequence (P41149 whole entry) above

T1 sequence (P33033 whole entry): as the sequence (P33033 whole entry) above

Take `C[C@@H]1NC(=O)[C@H](CN)NC(=O)[C@H](Cc2ccccc2)NC(=O)[C@H](Cc2ccccc2)NC(=O)[C@H](CCCNC(=N)N)NC(=O)[C@@H]2CCCN2C(=O)[C@H]2CCCN2C(=O)[C@H](Cc2ccccc2)NC1=O`: the figures for the Activity in test [1] and in [2] (filed as inverse agonist) were 20% and 10%, respectively.
A word on the EC50: it is the concentration that produces a half-maximal response. For the molecule `C[C@@H]1NC(=O)[C@H](CN)NC(=O)[C@H](Cc2ccccc2)NC(=O)[C@H](Cc2ccccc2)NC(=O)[C@H](CCCNC(=N)N)NC(=O)[C@@H]2CCCN2C(=O)[C@H]2CCCN2C(=O)CN(Cc2ccccc2)C1=O`, the half-maximal effective concentration (EC50) (in [3]; on Melanocortin receptor 3 [4]; on Melanocortin receptor 4 [6]) was over 100 µM each time. Also, the Kb was 3.16 µM at Melanocortin receptor 3 [5] and 0.251 µM at Melanocortin receptor 4 [7]. Moreover, the Activity in test [2] (filed as inverse agonist) was 10%.
In the case of `C[C@@H]1NC(=O)[C@H](CN)NC(=O)[C@H](Cc2ccccc2)NC(=O)CN(Cc2ccccc2)C(=O)[C@H](CCCNC(=N)N)NC(=O)[C@@H]2CCCN2C(=O)[C@H]2CCCN2C(=O)[C@H](Cc2ccccc2)NC1=O`, the Activity came out at 80% in test [8] and 70% in test [2] (filed as partial agonist). Also, the EC50 on Melanocortin receptor 3 [4] and on Melanocortin receptor 4 [6] was over 100 µM in each case.
With `C[C@@H]1NC(=O)CN(CCN)C(=O)[C@H](Cc2ccccc2)NC(=O)[C@H](Cc2ccccc2)NC(=O)[C@H](CCCNC(=N)N)NC(=O)[C@@H]2CCCN2C(=O)[C@H]2CCCN2C(=O)[C@H](Cc2ccccc2)NC1=O`, the Activity in test [8] came out at 60%; in [2] (filed as inverse agonist), 10%. Also, the EC50 on Melanocortin receptor 3 [4] and on Melanocortin receptor 4 [6] was over 100 µM throughout. In addition, the Kb was 0.126 µM at Melanocortin receptor 3 [5] and 0.00398 µM at Melanocortin receptor 4 [7].
`C[C@@H]1NC(=O)[C@H](CC(N)=O)NC(=O)CN(Cc2ccccc2)C(=O)[C@H](Cc2ccccc2)NC(=O)[C@H](CCCNC(=N)N)NC(=O)[C@@H]2CCCN2C(=O)[C@H]2CCCN2C(=O)[C@H](Cc2ccccc2)NC1=O`: the Activity was 70% in [8] and 10% in [2] (filed as inverse agonist). Also, the EC50 at Melanocortin receptor 3 [4] and on Melanocortin receptor 4 [6] was over 100 µM throughout.
In [8], `C[C@@H]1NC(=O)[C@H](CC(N)=O)NC(=O)[C@H](Cc2ccccc2)NC(=O)[C@H](Cc2ccccc2)NC(=O)CN(CCCNC(=N)N)C(=O)[C@@H]2CCCN2C(=O)[C@H]2CCCN2C(=O)[C@H](Cc2ccccc2)NC1=O` (HELM PEPTIDE1{P.[N=C(N)NCCCN(CC(=O)[*:2])[*:1]].F.F.N.A.F.[dP]}$PEPTIDE1,PEPTIDE1,1:R1-8:R2$$$V2.0) gave an Activity of 50%. Also, the EC50 on Melanocortin receptor 3 [4], at Melanocortin receptor 4 [6] and on Melanocortin receptor 5 was over 100 µM throughout. The Kb on Melanocortin receptor 3 [5] and on Melanocortin receptor 4 [7] was over 3.16 µM throughout.
On to `C[C@@H]1NC(=O)[C@H](CC(N)=O)NC(=O)[C@H](Cc2ccccc2)NC(=O)CN(Cc2ccccc2)C(=O)[C@H](CCCNC(=N)N)NC(=O)[C@@H]2CCCN2C(=O)[C@H]2CCCN2C(=O)[C@H](Cc2ccccc2)NC1=O`, for which the EC50 on Melanocortin receptor 3 [4] and at Melanocortin receptor 4 [6] was over 100 µM each time. The Kb on Melanocortin receptor 4 [7] is over 3.16 µM. The Activity in test [2] (filed as inverse agonist) came to 10%.
With `CN1CC(=O)N[C@@H](Cc2ccccc2)C(=O)N2CCC[C@@H]2C(=O)N2CCC[C@H]2C(=O)N[C@@H](CCCNC(=N)N)C(=O)N[C@@H](Cc2ccccc2)C(=O)N[C@@H](Cc2ccccc2)C(=O)N[C@@H](CC(N)=O)C1=O` (HELM PEPTIDE1{P.R.F.F.N.[Sar].F.[dP]}$PEPTIDE1,PEPTIDE1,1:R1-8:R2$$$V2.0), the EC50 at Melanocortin receptor 3 [4], at Melanocortin receptor 4 [6] and at Melanocortin receptor 5 was over 100 µM each time. In addition, the Kb at Melanocortin receptor 3 [5] and at Melanocortin receptor 4 [7] was over 3.16 µM throughout.
With `C[C@@H]1NC(=O)[C@H](CC(N)=O)NC(=O)[C@H](Cc2ccccc2)NC(=O)[C@H](Cc2ccccc2)NC(=O)[C@H](CCCNC(=N)N)NC(=O)[C@@H]2CCCN2C(=O)[C@H]2CCCN2C(=O)CN(Cc2ccccc2)C1=O`, the Activity in [8] was found to be 85%; in [1] (filed as agonist), 60%. In addition, the Kb at Melanocortin receptor 3 [5] and at Melanocortin receptor 4 [7] was over 3.16 µM throughout. Besides, the EC50 at Melanocortin receptor 4 [6] and on Melanocortin receptor 5 was over 100 µM each time.
On to `C[C@@H]1NC(=O)[C@H](CN)NC(=O)[C@H](Cc2ccccc2)NC(=O)[C@H](Cc2ccccc2)NC(=O)CN(CCCNC(=N)N)C(=O)[C@@H]2CCCN2C(=O)[C@H]2CCCN2C(=O)[C@H](Cc2ccccc2)NC1=O` (HELM PEPTIDE1{[N=C(N)NCCCN(CC(=O)[*:2])[*:1]].F.F.[NC[C@H](N[*:1])C(=O)[*:2]].A.F.[dP].P}$PEPTIDE1,PEPTIDE1,1:R1-8:R2$$$V2.0), for which the EC50 (in test [3]; at Melanocortin receptor 3 [4]; on Melanocortin receptor 4 [6]; at Melanocortin receptor 5) was over 100 µM in each case. Also, the figures for the Kb at Melanocortin receptor 3 [5] and at Melanocortin receptor 4 [7] were 1.26 µM and over 3.16 µM, respectively.
With `C[C@@H]1NC(=O)[C@H](CN)NC(=O)CN(Cc2ccccc2)C(=O)[C@H](Cc2ccccc2)NC(=O)[C@H](CCCNC(=N)N)NC(=O)[C@@H]2CCCN2C(=O)[C@H]2CCCN2C(=O)[C@H](Cc2ccccc2)NC1=O`, the Activity in test [8] turned out to be 60%; in test [2] (filed as inverse agonist), 10%. Further, the EC50 at Melanocortin receptor 3 [4] and on Melanocortin receptor 4 [6] was over 100 µM in each case.
As to `CN1CC(=O)N[C@@H](Cc2ccccc2)C(=O)N2CCC[C@@H]2C(=O)N2CCC[C@H]2C(=O)N[C@@H](CCCNC(=N)N)C(=O)N[C@@H](Cc2ccccc2)C(=O)N[C@@H](Cc2ccccc2)C(=O)N[C@@H](CN)C1=O`, the EC50 (in test [3]; on Melanocortin receptor 3 [4]; at Melanocortin receptor 4 [6]; on Melanocortin receptor 5) was over 100 µM each time. For the same molecule, the results for the Kb on Melanocortin receptor 3 [5] and on Melanocortin receptor 4 [7] were 2.51 µM and 0.794 µM, respectively.
